Experimental data from ChEMBL document CHEMBL1151441, “Antimicrobial susceptibilities and clinical sources of Dialister species” (2007).
Values after ≈ are worked out from the molar mass of the structure shown.

Tests used:
Type in all cases: functional
Dialister pneumosintes [1] = assay: Antimicrobial activity against Dialister pneumosintes assessed as susceptibility breakpoint by CA-SFM method
Dialister micraerophilus [2] = assay: Antimicrobial activity against Dialister micraerophilus by agar dilution method
Dialister pneumosintes [3] = assay: Antimicrobial activity against Dialister pneumosintes assessed as susceptibility breakpoint by CLSI method
Dialister invisus [4] = assay: Antimicrobial activity against Dialister invisus assessed as susceptibility breakpoint by CA-SFM method
Dialister pneumosintes [5] = assay: Antimicrobial activity against Dialister pneumosintes by agar dilution method
Dialister micraerophilus [6] = assay: Antimicrobial activity against Dialister micraerophilus assessed as susceptibility breakpoint by CLSI method
[7] = tested on: Dialister propionicifaciens; assay: Antimicrobial activity against Dialister propionicifaciens by agar dilution method
[8] = tested on: Dialister propionicifaciens; assay: Antimicrobial activity against Dialister propionicifaciens assessed as susceptibility breakpoint by CLSI method
Dialister invisus [9] = assay: Antimicrobial activity against Dialister invisus assessed as susceptibility breakpoint by CLSI method
Dialister micraerophilus [10] = assay: Antimicrobial activity against Dialister micraerophilus assessed as susceptibility breakpoint by CA-SFM method
[11] = tested on: Dialister propionicifaciens; assay: Antimicrobial activity against Dialister propionicifaciens assessed as susceptibility breakpoint by CA-SFM method
Dialister invisus [12] = assay: Antimicrobial activity against Dialister invisus by agar dilution method

SMILES | Activity (Dialister pneumosintes [1]) | MIC (Dialister micraerophilus [2]) [µg/mL] | Activity (Dialister pneumosintes [3]) | Activity (Dialister invisus [4]) | MIC (Dialister pneumosintes [5]) [µg/mL] | MIC50 (Dialister pneumosintes [5]) [µg/mL] | MIC90 (Dialister pneumosintes [5]) [µg/mL] | Activity (Dialister micraerophilus [6]) | MIC [7] [µg/mL] | Activity [8] | Activity (Dialister invisus [9]) | Activity (Dialister micraerophilus [10]) | Activity [11] | MIC50 (Dialister micraerophilus [2]) [µg/mL] | MIC90 (Dialister micraerophilus [2]) [µg/mL] | MIC (Dialister invisus [12]) [µg/mL]
C[C@@H](O)[C@H]1C(=O)N2C(C(=O)O)=C(S[C@@H]3CN[C@H](C(=O)Nc4cccc(C(=O)O)c4)C3)[C@H](C)[C@H]12 | <=4 ug ml-1 | 0.125 (≈ 0.263 µM) | <=4 ug ml-1 | <=4 ug ml-1 | 0.125 (≈ 0.263 µM) | 0.125 (≈ 0.263 µM) | 0.125 (≈ 0.263 µM) | <=4 ug ml-1 | 0.125 (≈ 0.263 µM) | <=4 ug ml-1 | <=4 ug ml-1 | <=4 ug ml-1 | <=4 ug ml-1 | – | – | –
CC1(C)S[C@@H]2[C@H](NC(=O)[C@H](N)c3ccc(O)cc3)C(=O)N2[C@H]1C(=O)O [AMOXICILLIN] | <=0.5 ug ml-1 | ≤ 0.06 | <=0.5 ug ml-1 | <=0.5 ug ml-1 | ≤ 0.06 | ≤ 0.06 | ≤ 0.06 | <=0.5 ug ml-1 | ≤ 0.06 | <=0.5 ug ml-1 | <=0.5 ug ml-1 | <=0.5 ug ml-1 | <=0.5 ug ml-1 | ≤ 0.06 | ≤ 0.06 | ≤ 0.06
CO[C@@]1(NC(=O)Cc2cccs2)C(=O)N2C(C(=O)O)=C(COC(N)=O)CS[C@@H]21 [CEFOXITIN] | <=8 ug ml-1 | 0.5 (≈ 1.17 µM) | <=16 ug ml-1 | <=8 ug ml-1 | 0.5 (≈ 1.17 µM) | 0.5 (≈ 1.17 µM) | 1 (≈ 2.34 µM) | <=16 ug ml-1 | 0.5 (≈ 1.17 µM) | <=16 ug ml-1 | <=16 ug ml-1 | <=8 ug ml-1 | <=8 ug ml-1 | 0.5 (≈ 1.17 µM) | 0.5 (≈ 1.17 µM) | 0.5 (≈ 1.17 µM)
CC(=O)OCC1=C(C(=O)O)N2C(=O)[C@@H](NC(=O)Cc3cccs3)[C@H]2SC1 [CEPHALOTHIN] | <=8 ug ml-1 | 0.25 (≈ 0.631 µM) | – | <=8 ug ml-1 | 0.25 (≈ 0.631 µM) | 0.5 (≈ 1.26 µM) | 1 (≈ 2.52 µM) | – | 0.25 (≈ 0.631 µM) | – | – | <=8 ug ml-1 | <=8 ug ml-1 | – | – | –
O=C(N[C@H](CO)[C@H](O)c1ccc([N+](=O)[O-])cc1)C(Cl)Cl [CHLORAMPHENICOL] | <=8 ug ml-1 | 0.25 (≈ 0.774 µM) | <=8 ug ml-1 | <=8 ug ml-1 | 0.25 (≈ 0.774 µM) | 0.25 (≈ 0.774 µM) | 0.5 (≈ 1.55 µM) | <=8 ug ml-1 | 0.25 (≈ 0.774 µM) | <=8 ug ml-1 | <=8 ug ml-1 | <=8 ug ml-1 | <=8 ug ml-1 | 0.25 (≈ 0.774 µM) | 1 (≈ 3.09 µM) | 0.25 (≈ 0.774 µM)
O=C(O)c1cn(C2CC2)c2cc(N3CCNCC3)c(F)cc2c1=O [CIPROFLOXACIN] | <=0.5 ug ml-1 | ≤ 0.06 | – | <=0.5 ug ml-1 | ≤ 0.06 | ≤ 0.06 | ≤ 0.06 | – | ≤ 0.06 | – | – | <=0.5 ug ml-1 | <=0.5 ug ml-1 | ≤ 0.06 | ≤ 0.06 | ≤ 0.06
CCC[C@@H]1C[C@@H](C(=O)N[C@@H]([C@H]2O[C@H](SC)[C@H](O)[C@@H](O)[C@H]2O)[C@H](C)Cl)N(C)C1 [CLINDAMYCIN] | <=2 ug ml-1 | 0.125 (≈ 0.294 µM) | <=2 ug ml-1 | <=2 ug ml-1 | 0.125 (≈ 0.294 µM) | 0.125 (≈ 0.294 µM) | 0.125 (≈ 0.294 µM) | <=2 ug ml-1 | 0.125 (≈ 0.294 µM) | <=2 ug ml-1 | <=2 ug ml-1 | <=2 ug ml-1 | <=2 ug ml-1 | 0.125 (≈ 0.294 µM) | 0.125 (≈ 0.294 µM) | 0.125 (≈ 0.294 µM)
C[C@H]1c2cccc(O)c2C(=O)C2=C(O)[C@]3(O)C(=O)C(C(N)=O)=C(O)[C@@H](N(C)C)[C@@H]3[C@@H](O)[C@@H]21.O [DOXYCYCLINE] | <=4 ug ml-1 | ≤ 0.06 | – | <=4 ug ml-1 | ≤ 0.06 | 0.25 | 0.25 | – | ≤ 0.06 | – | – | <=4 ug ml-1 | <=4 ug ml-1 | – | – | –
CC[C@H]1OC(=O)[C@H](C)[C@@H](O[C@H]2C[C@@](C)(OC)[C@@H](O)[C@H](C)O2)[C@H](C)[C@@H](O[C@@H]2O[C@H](C)C[C@H](N(C)C)[C@H]2O)[C@](C)(O)C[C@@H](C)C(=O)[C@H](C)[C@@H](O)[C@]1(C)O [ERYTHROMYCIN] | <=1 ug ml-1 | 0.125 (≈ 0.17 µM) | – | <=1 ug ml-1 | 0.125 (≈ 0.17 µM) | 1 (≈ 1.36 µM) | 2 (≈ 2.73 µM) | – | 0.125 (≈ 0.17 µM) | – | – | <=1 ug ml-1 | <=1 ug ml-1 | – | – | –
C[C@@H](O)[C@H]1C(=O)N2C(C(=O)O)=C(SCCNC=N)C[C@H]12 [IMIPENEM ANHYDROUS] | <=4 ug ml-1 | – | <=4 ug ml-1 | <=4 ug ml-1 | ≤ 0.06 | ≤ 0.06 | 0.25 (≈ 0.835 µM) | <=4 ug ml-1 | ≤ 0.06 | <=4 ug ml-1 | <=4 ug ml-1 | <=4 ug ml-1 | <=4 ug ml-1 | 0.06 (≈ 0.2 µM) | ≤ 0.06 | 0.06 (≈ 0.2 µM)
C[C@H]1COc2c(N3CCN(C)CC3)c(F)cc3c(=O)c(C(=O)O)cn1c23.C[C@H]1COc2c(N3CCN(C)CC3)c(F)cc3c(=O)c(C(=O)O)cn1c23.O [LEVOFLOXACIN] | <=1 ug ml-1 | 0.25 | – | <=1 ug ml-1 | 0.25 | 0.25 | 0.5 | – | 0.25 | – | – | <=1 ug ml-1 | <=1 ug ml-1 | – | – | –
Cc1ncc([N+](=O)[O-])n1CCO [METRONIDAZOLE] | <=2 ug ml-1 | 1 (≈ 5.84 µM) | <=8 ug ml-1 | <=2 ug ml-1 | 1 (≈ 5.84 µM) | 4 (≈ 23.4 µM) | 8 (≈ 46.7 µM) | <=8 ug ml-1 | 1 (≈ 5.84 µM) | <=8 ug ml-1 | <=8 ug ml-1 | <=2 ug ml-1 | <=2 ug ml-1 | 2 (≈ 11.7 µM) | 8 (≈ 46.7 µM) | 2 (≈ 11.7 µM)
COc1c(N2C[C@@H]3CCCN[C@@H]3C2)c(F)cc2c(=O)c(C(=O)O)cn(C3CC3)c12 [MOXIFLOXACIN] | <=1 ug ml-1 | ≤ 0.06 | – | – | ≤ 0.06 | ≤ 0.06 | 0.06 (≈ 0.149 µM) | – | ≤ 0.06 | – | – | <=1 ug ml-1 | – | ≤ 0.06 | 0.25 (≈ 0.623 µM) | ≤ 0.06
CCN1CCN(C(=O)N[C@@H](C(=O)N[C@@H]2C(=O)N3[C@@H]2SC(C)(C)[C@@H]3C(=O)O)c2ccccc2)C(=O)C1=O [PIPERACILLIN] | <=8 ug ml-1 | – | <=32 ug ml-1 | <=8 ug ml-1 | ≤ 0.125 | 1 (≈ 1.93 µM) | 16 (≈ 30.9 µM) | <=32 ug ml-1 | 0.125 (≈ 0.242 µM) | <=32 ug ml-1 | <=32 ug ml-1 | <=8 ug ml-1 | <=8 ug ml-1 | 0.125 (≈ 0.242 µM) | 1 (≈ 1.93 µM) | 0.125 (≈ 0.242 µM)
CO[C@H]1/C=C/O[C@@]2(C)Oc3c(C)c(O)c4c(O)c(c(/C=N/N5CCN(C)CC5)c(O)c4c3C2=O)NC(=O)/C(C)=C\C=C\[C@H](C)[C@H](O)[C@@H](C)[C@@H](O)[C@@H](C)[C@H](OC(C)=O)[C@@H]1C [RIFAMPIN] | <=2 ug ml-1 | ≤ 0.06 | – | <=2 ug ml-1 | ≤ 0.06 | 2 (≈ 2.43 µM) | 4 (≈ 4.86 µM) | – | ≤ 0.06 | – | – | <=2 ug ml-1 | <=2 ug ml-1 | ≤ 0.06 | ≤ 0.06 | ≤ 0.06
CC[C@H]1OC(=O)[C@H](C)C(=O)[C@H](C)[C@@H](O[C@@H]2O[C@H](C)C[C@H](N(C)C)[C@H]2O)[C@](C)(OC)C[C@@H](C)C(=O)[C@H](C)[C@H]2N(CCCCn3cnc(-c4cccnc4)c3)C(=O)O[C@]12C [TELITHROMYCIN] | <=0.5 ug ml-1 | ≤ 0.06 | – | <=0.5 ug ml-1 | ≤ 0.06 | ≤ 0.06 | ≤ 0.06 | – | ≤ 0.06 | – | – | <=0.5 ug ml-1 | <=0.5 ug ml-1 | ≤ 0.06 | ≤ 0.06 | ≤ 0.06
CC1(C)S[C@@H]2[C@H](NC(=O)[C@H](C(=O)O)c3ccsc3)C(=O)N2[C@H]1C(=O)O [TICARCILLIN] | <=16 ug ml-1 | ≤ 0.06 | <=32 ug ml-1 | <=16 ug ml-1 | ≤ 0.06 | 0.25 (≈ 0.65 µM) | 2 (≈ 5.2 µM) | <=32 ug ml-1 | ≤ 0.06 | <=32 ug ml-1 | <=32 ug ml-1 | <=16 ug ml-1 | <=16 ug ml-1 | ≤ 0.06 | 0.5 (≈ 1.3 µM) | 0.25 (≈ 0.65 µM)
